The record followed here is ChEMBL document CHEMBL4184272, “Violacin A, a new chromanone produced by Streptomyces violaceoruber and its anti-inflammatory activity” (Bioorg Med Chem Lett, 2018).

For orientation: IC50 means the concentration needed to halve the response being measured.

Data set [1] has as its system RAW264.7. The data set is described as follows: Anti-inflammatory activity in mouse RAW264.7 cells assessed as inhibition of LPS-stimulated NO production by Griess assay. It counts as functional, cell-based. (In general: Nitrite, measured by Griess reagent, commonly stands in for NO production.)
In data set [2] the test system is RAW264.7. The data set is described as follows: Cytotoxicity against LPS-stimulated mouse RAW264.7 cells assessed as reduction in cell viability at 3.3 to 90 uM after 24 hrs by MTT assay. It counts as cell-based. The following applies: raw264.7, 24 h. On the technique in general: Tetrazolium assays rely on reduction of a dye to a coloured formazan, in cell work by metabolically active cells.

The target in data set [3] is Transcription factor p65 (Mus musculus) (UniProt Q04207). Kind of data set: Inhibition of NF-kB p65 phosphorylation in mouse RAW264.7 cells at 3.3 to 30 uM preincubated for 2 hrs followed by LPS stimulation measured after 30 mins by Western blot method. It counts as cell-based. On the technique in general: A western blot detects proteins with antibodies after separation by electrophoresis.
Chain of Transcription factor p65 (Mus musculus) (Q04207 whole entry): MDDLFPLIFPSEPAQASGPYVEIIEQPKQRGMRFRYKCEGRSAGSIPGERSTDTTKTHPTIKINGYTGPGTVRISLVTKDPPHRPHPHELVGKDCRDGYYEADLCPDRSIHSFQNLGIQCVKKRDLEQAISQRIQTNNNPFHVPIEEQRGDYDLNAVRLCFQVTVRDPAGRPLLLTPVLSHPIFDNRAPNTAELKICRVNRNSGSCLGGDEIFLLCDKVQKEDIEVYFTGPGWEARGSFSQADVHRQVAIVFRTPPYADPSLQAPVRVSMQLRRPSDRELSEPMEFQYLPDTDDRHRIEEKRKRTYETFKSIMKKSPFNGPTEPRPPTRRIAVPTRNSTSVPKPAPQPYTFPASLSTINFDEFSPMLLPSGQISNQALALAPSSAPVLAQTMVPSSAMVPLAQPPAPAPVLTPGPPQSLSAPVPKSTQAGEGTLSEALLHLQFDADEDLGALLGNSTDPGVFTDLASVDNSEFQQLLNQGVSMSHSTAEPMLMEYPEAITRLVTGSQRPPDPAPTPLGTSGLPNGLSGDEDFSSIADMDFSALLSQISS

Data set [4] concerns RAW264.7. The data set is described as follows: Inhibition of NF-kB signaling in mouse RAW264.7 cells assessed as reduction in LPS-stimulated iNOS protein level at 3.3 to 30 uM preincubated for 2 hrs followed by LPS stimulation measured after 4 hrs by Western blot assay. It counts as cell-based.
Data set [5] deals with RAW264.7. The data set is described as follows: Inhibition of NF-kB signaling in mouse RAW264.7 cells assessed as reduction in LPS-stimulated IL-1beta mRNA level preincubated for 2 hrs followed by LPS stimulation measured after 4 hrs by qRT-PCR assay. It counts as cell-based.
Data set [6] has as its system RAW264.7. Kind of data set: Inhibition of NF-kB signaling in mouse RAW264.7 cells assessed as reduction in LPS-stimulated iNOS mRNA level preincubated for 2 hrs followed by LPS stimulation measured after 24 hrs by qRT-PCR method. It counts as cell-based.
Data set [7] has as its system RAW264.7. The data set is described as follows: Inhibition of NF-kB signaling in mouse RAW264.7 cells assessed as reduction in LPS-stimulated TNFalpha mRNA level preincubated for 2 hrs followed by LPS stimulation measured after 4 hrs by qRT-PCR assay. It counts as cell-based.
Data set [8] concerns RAW264.7. Kind of data set: Inhibition of NF-kB signaling in mouse RAW264.7 cells assessed as reduction in LPS-stimulated IL-6 mRNA level preincubated for 2 hrs followed by LPS stimulation measured after 4 hrs by qRT-PCR assay. It counts as cell-based.
In data set [9] the target is Transcription factor p65 (Mus musculus) (UniProt Q04207). Kind of data set: Inhibition of NF-kB p65 signaling pathway in mouse RAW264.7 cells assessed as reduction in LPS-stimulated IkBalpha phosphorylation at 3.3 to 30 uM preincubated for 2 hrs followed by LPS stimulation measured after 30 mins by Western blot method. It counts as cell-based.
The target is the same in data set [10]. Kind of data set: Inhibition of LPS-stimulated NF-kB p65 signaling pathway in mouse RAW264.7 cells assessed as reduction in p65 nuclear translocation at 3.3 to 30 uM preincubated for 2 hrs followed by LPS stimulation measured after 30 mins by Western blot method. It counts as cell-based.
The test system of data set [11] is RAW264.7. Kind of data set: Anti-inflammatory activity in mouse RAW264.7 cells assessed as inhibition of LPS-stimulated NO production preincubated for 2 hrs followed by LPS stimulation measured after 18 hrs by Griess assay. It counts as functional, cell-based.
Data set [12] has as its target Transcription factor p65 (Mus musculus) (UniProt Q04207). Kind of data set: Inhibition of LPS-stimulated NF-kB p65 signaling pathway in mouse RAW264.7 cells assessed as IkBalpha accumulation at 3.3 to 30 uM preincubated for 2 hrs followed by LPS stimulation measured after 30 mins by Western blot method. It counts as cell-based.

Activity calls are given as the source filed them. No cut-off for these calls is given here.

With `CCCc1c(C(C)=O)c(O)cc2c1C(=O)C[C@H](O)C2`, in the data set on RAW264.7 [1], the IC50 amounted to 51.2 µM.
For the molecule `CC(=O)CC1(O)CC(=O)c2c(C)cc(O)cc2O1` (configuration not stated), the Activity entry in the data set with RAW264.7 [2] was “Non-Toxic”. Moreover, the inhibition result (in data set [3]; in the data set on RAW264.7 [4]; in data set [9]; in data set [10]; in [12]) was “Active” each time. In addition, the inhibition result with RAW264.7 [5], with RAW264.7 [6], with RAW264.7 [7], with RAW264.7 [8] and in the data set with RAW264.7 [11] was “Dose-dependent effect” in each case.
